Assay results from ChEMBL document CHEMBL1139050, “Specific interactions with intra- and intermolecular G-quadruplex DNA structures by hydrosoluble coronene derivatives: a new class of telomerase inhibitors” (Bioorg Med Chem, 2007).

Target: Telomerase reverse transcriptase (Homo sapiens) (UniProt O14746)
Assay: Inhibition of telomerase at 10 uM after 30 mins by TRAP assay

Telomerase reverse transcriptase (Homo sapiens), sequence (O14746 whole entry): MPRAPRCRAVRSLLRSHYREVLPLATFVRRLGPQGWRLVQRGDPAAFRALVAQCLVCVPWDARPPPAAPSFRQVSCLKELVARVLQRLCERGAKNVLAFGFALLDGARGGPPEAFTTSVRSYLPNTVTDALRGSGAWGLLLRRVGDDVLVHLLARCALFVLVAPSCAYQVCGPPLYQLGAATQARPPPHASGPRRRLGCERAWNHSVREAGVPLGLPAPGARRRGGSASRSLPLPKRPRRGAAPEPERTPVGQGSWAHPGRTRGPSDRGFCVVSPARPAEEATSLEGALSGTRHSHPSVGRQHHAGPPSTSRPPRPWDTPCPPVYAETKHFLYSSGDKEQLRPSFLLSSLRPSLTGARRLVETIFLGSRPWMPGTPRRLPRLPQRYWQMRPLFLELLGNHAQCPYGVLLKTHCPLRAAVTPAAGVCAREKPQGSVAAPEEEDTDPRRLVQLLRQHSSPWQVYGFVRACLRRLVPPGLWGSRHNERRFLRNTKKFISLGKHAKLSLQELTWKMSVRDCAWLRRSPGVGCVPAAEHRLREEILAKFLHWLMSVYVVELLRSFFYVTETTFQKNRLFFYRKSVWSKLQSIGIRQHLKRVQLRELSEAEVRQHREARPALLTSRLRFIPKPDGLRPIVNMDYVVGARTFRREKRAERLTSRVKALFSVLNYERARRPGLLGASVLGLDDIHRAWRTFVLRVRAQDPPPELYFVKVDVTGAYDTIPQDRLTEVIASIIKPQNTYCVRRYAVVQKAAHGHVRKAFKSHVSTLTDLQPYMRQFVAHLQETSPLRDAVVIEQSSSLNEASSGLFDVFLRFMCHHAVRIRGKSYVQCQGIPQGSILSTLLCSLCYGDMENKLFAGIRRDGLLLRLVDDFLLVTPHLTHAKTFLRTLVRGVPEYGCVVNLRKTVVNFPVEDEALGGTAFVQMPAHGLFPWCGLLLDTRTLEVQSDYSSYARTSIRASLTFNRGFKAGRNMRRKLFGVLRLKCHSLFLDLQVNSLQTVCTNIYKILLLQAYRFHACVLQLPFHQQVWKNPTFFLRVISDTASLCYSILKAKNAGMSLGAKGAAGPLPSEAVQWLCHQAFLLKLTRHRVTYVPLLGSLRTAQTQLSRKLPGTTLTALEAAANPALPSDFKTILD

Row | inhibition | Compound
1 | 44% | CN1CCN(CCc2cc3cc4c(=O)n(CCN5CCCCC5)c(=O)c5cc6c(CCN7CCN(C)CC7)cc7cc8c(=O)n(CCN9CCCCC9)c(=O)c9cc2c2c3c(c45)c6c7c2c89)CC1
2 | 38% | O=c1c2cc3cc(CCN4CCCCC4)c4cc5c(=O)n(CCN6CCCCC6)c(=O)c6cc7cc(CCN8CCCCC8)c8cc(c(=O)n1CCN1CCCCC1)c2c1c3c4c(c65)c7c81
3 | 66% | CN(C)CCCn1c(=O)c2cc3cc(CCN4CCN(C)CC4)c4cc5c(=O)n(CCCN(C)C)c(=O)c6cc7cc(CCN8CCN(C)CC8)c8cc(c1=O)c2c1c3c4c(c65)c7c81
4 | 52% | CN(C)CCCn1c(=O)c2cc3cc(CCN4CCCCC4)c4cc5c(=O)n(CCCN(C)C)c(=O)c6cc7cc(CCN8CCCCC8)c8cc(c1=O)c2c1c3c4c(c65)c7c81
